Consider four molecules from patent US5610297A, “Peptides ketoamides” (Georgia Tech Research Corp., priority 1995, dated 1997).

The first experiment has as its target cathepsin B. Kind of experiment: Inhibition of cathepsin B. It counts as biochemical. Particulars: read-out: KI Cath B. As for the experimental part:
(§1) Materials and Methods. HEPES, heparin, and A23187 were obtained from Calbiochem. Suc-Leu-Tyr-AMC and chromogenic substrates were obtained from Sigma. Calpain I was purified from human erythrocytes according to the method of Kitahara (Kitahara et al., J. Biochem. 95, 1759-1766) omitting the Blue-Sepharose step. Calpain II from rabbit muscle and cathepsin B were purchased from Sigma. Papain was purchased from Calbiochem.
(§2) Assay of Inhibitory Potency. Peptide α-ketoamides were assayed as reversible enzyme inhibitors. Various concentrations of inhibitors in Me2 SO were added to the assay mixture which contained buffer and substrate. The reaction was started by the addition of the enzyme and the hydrolysis rates were followed spectrophotometrically or fluorimetrically.
(§3) Calpain I from human erythrocytes and calpain II from rabbit were assayed using Suc-Leu-Tyr-AMC [Sasaki et al., J. Biol. Chem. 259, 12489-12494 (1984); incorporated herein by reference], and the AMC (7-amino-4-methylcoumarin) release was followed fluorimetrically (excitation at 380 nm, and emmision at 460 nm). Calpains were assayed in 25 mM Tris pH=8.0, 10 mM CaCl2. Fluorescence was followed using a Gilson FL-1A fluorometer or a Perkin-Elmer 203 Fluorescence spectrometer. Cathepsin B was assayed in 20 mM sodium acetate pH=5.2, 0.5 mM dithiothreitol using Bz-Phe-Val-Arg-p-nitroanilide as substrate. Alternately, cathepsin B was assayed with Z-Arg-Arg-AFC [Barrett and Kirschke, Methods Enzymol. 80, 535-561 (1981); incorporated herein by reference], and the AFC (7-amino-4-trifluoromethylcoumarin) release was followed fluorimetrically (excitation at 400 nm and emmision at 505 nm). Papain was assayed in 100 mM KPO4, 1 mM EDTA, 2.5 mM cysteine pH=6.0 using Bz-Arg-AMC or Bz-Arg-NA [Kanaoka et al., Chem. Plmrm. Bull. 25, 3126-3128 (1977); incorporated herein by reference] as a substrate. The AMC (7-amino-4-methylcoumarin) release was followed fluorimetrically (excitation at 380 nm, and emmision at 460 nm). Enzymatic hydrolysis rates were measured at various substrate and inhibitor concentrations, and KI values were determined by either Lineweaver-Burk plots or Dixon plots.
(§4) A 0.1M Hepes, 0.5M NaCl, pH 7.5 buffer was utilized for human leukocyte elastase (HLE), porcine pancreatic elastase (PPE), chymotrypsin and cathepsin G. A 0.1 Hepes, 0.01M CaCl2, pH 7.5 buffer was utilized for trypsin, plasmin, and coagulation enzymes. A 50 mM Tris-HCl, 2 mM EDTA, 5 mM cysteine, pH 7.5 was used as a buffer for papain. A 88 mM KH2 PO4, 12 mM Na2 HPO4, 1.33 mM EDTA, 2.7 mM cysteine, pH 6.0 solution was used as a buffer for cathepsin B. A 20 mM Hepes, 10 mM CaCl2, 10 mM mercatoethanol, pH 7.2 buffer was utilized for calpain I and calpain II.
For `CCNC(=O)C(=O)[C@H](CC)NC(=O)[C@H](CC(C)C)NC(=O)OCc1ccccc1` [Z--Leu--Abu--CONH--Et, Z-Leu-Abu-CONH-Et], the Ki (in general, the equilibrium dissociation constant of an inhibitor or competing ligand from its target) was determined as 2.4 µM.

In the case of `CCCCNC(=O)C(=O)C(CC)NC(=O)C(CC(C)C)NC(=O)OCc1ccccc1` (stereo not drawn) [Z--Leu--Abu--CONH--nBu, Z-Leu-Abu-CONH-nBu], the Ki is 13 µM.

Take `CCNC(=O)C(=O)[C@H](Cc1ccccc1)NC(=O)[C@H](CC(C)C)NC(=O)OCc1ccccc1` [Z--Leu--Phe--CONH--Et, Z-Leu-Phe-CONH-Et]: the Ki is 6 µM.

Regarding `CCCNC(=O)C(=O)C(Cc1ccccc1)NC(=O)C(CC(C)C)NC(=O)OCc1ccccc1` (stereo not drawn) [Z--Leu--Phe--CONH--nPr, Z-Leu-Phe-CONH-nPr], the Ki was found to be 3 µM.

The target of a further experiment is T1, Calpain I from human erythrocytes (Homo sapiens, UniProt P07384).
T1 construct: Calpain I was purified from human erythrocytes; from tissue; host or cells: human erythrocytes
T1 sequence (P07384 1-714): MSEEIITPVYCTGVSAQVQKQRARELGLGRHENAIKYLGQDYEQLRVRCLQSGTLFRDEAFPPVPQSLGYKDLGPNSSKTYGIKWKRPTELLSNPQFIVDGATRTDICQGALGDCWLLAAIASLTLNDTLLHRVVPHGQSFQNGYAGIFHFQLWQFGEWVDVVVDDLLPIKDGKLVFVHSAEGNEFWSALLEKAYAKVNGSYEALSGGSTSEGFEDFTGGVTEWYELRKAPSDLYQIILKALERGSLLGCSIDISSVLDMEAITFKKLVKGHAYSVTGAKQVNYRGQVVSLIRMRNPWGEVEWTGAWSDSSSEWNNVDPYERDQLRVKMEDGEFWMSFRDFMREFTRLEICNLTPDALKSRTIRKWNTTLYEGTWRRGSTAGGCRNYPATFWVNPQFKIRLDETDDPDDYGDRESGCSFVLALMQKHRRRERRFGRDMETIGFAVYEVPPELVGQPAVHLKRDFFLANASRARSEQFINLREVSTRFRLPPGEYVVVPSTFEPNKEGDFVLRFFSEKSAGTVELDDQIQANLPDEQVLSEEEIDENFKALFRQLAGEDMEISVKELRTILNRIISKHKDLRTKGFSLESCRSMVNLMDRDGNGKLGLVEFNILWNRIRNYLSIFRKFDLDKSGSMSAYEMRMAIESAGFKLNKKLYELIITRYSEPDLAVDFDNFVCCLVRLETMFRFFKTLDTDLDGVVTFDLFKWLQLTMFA
T1 sequence (P04632 1-268 partner): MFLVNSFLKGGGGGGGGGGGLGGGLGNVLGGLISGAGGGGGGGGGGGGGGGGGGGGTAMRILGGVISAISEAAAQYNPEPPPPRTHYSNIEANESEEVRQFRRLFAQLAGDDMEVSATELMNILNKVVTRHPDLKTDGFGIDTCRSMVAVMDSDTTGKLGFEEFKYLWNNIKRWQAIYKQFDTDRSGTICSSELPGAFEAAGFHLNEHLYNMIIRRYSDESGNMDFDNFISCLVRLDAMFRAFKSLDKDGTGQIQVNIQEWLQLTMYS
Kind of experiment: Inhibition of calpain I (Suc-Leu-Tyr-AMC hydrolysis). It counts as biochemical.
Details: not given
As for the experimental part: as §1, §2, §3, §4
`CCNC(=O)C(=O)[C@H](CC)NC(=O)[C@H](CC(C)C)NC(=O)OCc1ccccc1` [Z--Leu--Abu--CONH--Et, Z-Leu-Abu-CONH-Et] showed a Ki of 0.5 µM.

In turn, `CCCCNC(=O)C(=O)C(CC)NC(=O)C(CC(C)C)NC(=O)OCc1ccccc1` (stereo not drawn) [Z--Leu--Abu--CONH--nBu, Z-Leu-Abu-CONH-nBu] yielded a Ki of 0.2 µM.

`CCNC(=O)C(=O)[C@H](Cc1ccccc1)NC(=O)[C@H](CC(C)C)NC(=O)OCc1ccccc1` [Z--Leu--Phe--CONH--Et, Z-Leu-Phe-CONH-Et]: the affinity, expressed as Ki, was 7 µM.

As for `CCCNC(=O)C(=O)C(Cc1ccccc1)NC(=O)C(CC(C)C)NC(=O)OCc1ccccc1` (stereo not drawn) [Z--Leu--Phe--CONH--nPr, Z-Leu-Phe-CONH-nPr], the Ki was found to be 15 µM.

Still in this experiment, the particulars now being: relative to Z-Leu-Phe-CONH-Et.
Take `CCNC(=O)C(=O)[C@H](CC)NC(=O)[C@H](CC(C)C)NC(=O)OCc1ccccc1` [Z--Leu--Abu--CONH--Et, Z-Leu-Abu-CONH-Et]: the “better inhibitor of calpain I than Z-Leu-Phe-CONH-Et” value is 14 fold.
